Species on record: Homo sapiens
Assay: Inhibition of 10 uM ADP induced aggregation in human gel filtered platelets in the presence fibrinogen and aspirin.
Assay type: functional
Work on CCN(CC)CCO[C@H]1CC[C@H]([C@H]2CC[C@](O)(CC(=O)O)CC2)CC1 yielded an IC50 of 54000 nM.
Compound N=C(N)c1ccc(N2CCN(C3CCN(CC(=O)O)CC3)CC2)cc1 has an IC50 of 37 nM.
For N/C(=N\CC(F)(F)F)c1ccc(-c2ccc(C3=CCC(O)(CC(=O)O)CC3)cc2)cc1 (centres undefined), the IC50 was 210 nM.
With N=C(N)c1ccc(-c2ccc(N3CC[N+](CC(=O)O)(Cc4ccccc4)CC3)cc2)cc1 the IC50 was 31 nM.

Source: ChEMBL document CHEMBL1127402, “Orally active non-peptide fibrinogen receptor (GpIIb/IIIa) antagonists: identification of 4-[4-[4-(aminoiminomethyl)phenyl]-1-piperazinyl]-1-piperidineacetic acid as a long-acting, broad-spectrum antithrombotic agent” (J Med Chem, 1994)
